Measured values published in PubChem BioAssay (NCI).
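96-well plates; 48 h exposure; 5 concentrations. Endpoints by linear interpolation between flanking doses. Not reached: highest tested concentration assigned. GI50 is the concentration that inhibits growth by half. At the TGI there is no net growth.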

What was measured:
Experiment in all cases: NCI anticancer screen, dose series, 48 h
SNB-19 CNS = system: SNB-19 CNS
RXF 393 renal = system: RXF 393 renal
PC-3 prostate = system: PC-3 prostate
RPMI-8226 leukemia = system: RPMI-8226 leukemia
MDA-MB-435 = system: MDA-MB-435
SF-295 CNS = system: SF-295 CNS
OVCAR-8 ovarian = system: OVCAR-8 ovarian
SK-OV-3 ovarian = system: SK-OV-3 ovarian
HCC-2998 colon = system: HCC-2998 colon
OVCAR-3 ovarian = system: OVCAR-3 ovarian
MALME-3M melanoma = system: MALME-3M melanoma
SK-MEL-5 melanoma = system: SK-MEL-5 melanoma
786-0 renal = system: 786-0 renal
UACC-62 melanoma = system: UACC-62 melanoma
SK-MEL-28 melanoma = system: SK-MEL-28 melanoma
HOP-92 NSCLC = system: HOP-92 NSCLC
HT29 colon = system: HT29 colon
MDA-MB-231 breast = system: MDA-MB-231 breast
NCI/ADR-RES ovarian = system: NCI/ADR-RES ovarian
OVCAR-5 ovarian = system: OVCAR-5 ovarian
A549 NSCLC = system: A549 NSCLC
NCI-H522 lung = system: NCI-H522 lung
SNB-75 CNS = system: SNB-75 CNS
OVCAR-4 ovarian = system: OVCAR-4 ovarian
IGROV1 ovarian = system: IGROV1 ovarian
T-47D breast = system: T-47D breast
TK-10 renal = system: TK-10 renal
SN12C renal = system: SN12C renal
M14 melanoma = system: M14 melanoma
HOP-62 NSCLC = system: HOP-62 NSCLC
A498 renal = system: A498 renal
HS 578T breast = system: HS 578T breast
DU-145 prostate = system: DU-145 prostate
NCI-H460 lung = system: NCI-H460 lung
UACC-257 melanoma = system: UACC-257 melanoma
SF-539 CNS = system: SF-539 CNS
UO-31 renal = system: UO-31 renal
EKVX NSCLC = system: EKVX NSCLC
COLO 205 colon = system: COLO 205 colon
CCRF-CEM leukemia = system: CCRF-CEM leukemia
U251 CNS = system: U251 CNS
BT-549 breast = system: BT-549 breast
ACHN renal = system: ACHN renal
NCI-H226 lung = system: NCI-H226 lung
SF-268 CNS = system: SF-268 CNS
MCF7 breast = system: MCF7 breast
NCI-H23 lung = system: NCI-H23 lung
K-562 leukemia = system: K-562 leukemia
MOLT-4 leukemia = system: MOLT-4 leukemia
SK-MEL-2 melanoma = system: SK-MEL-2 melanoma
HCT-15 colon = system: HCT-15 colon
KM12 colon = system: KM12 colon
SW-620 colon = system: SW-620 colon
SR leukemia = system: SR leukemia
LOX IMVI melanoma = system: LOX IMVI melanoma
HL-60(TB) leukemia = system: HL-60(TB) leukemia
HCT-116 colon = system: HCT-116 colon
CAKI-1 renal = system: CAKI-1 renal
MDA-N = system: MDA-N

## O=C(N/N=C\c1cc(Cl)ccc1O)c1ccncc1
SNB-19 CNS
  GI50: 5.95 µM
  TGI: > 100 µM
RXF 393 renal
  GI50: 2.43 µM
  TGI: > 100 µM
PC-3 prostate
  GI50: 3.69 µM
  TGI: > 100 µM
RPMI-8226 leukemia
  GI50: 8.85 µM
  TGI: > 100 µM
MDA-MB-435
  GI50: 11.7 µM
  TGI: > 100 µM
SF-295 CNS
  GI50: 5.29 µM
  TGI: > 100 µM
OVCAR-8 ovarian
  GI50: 3.39 µM
  TGI: > 100 µM
SK-OV-3 ovarian
  GI50: 5.39 µM
  TGI: > 100 µM
HCC-2998 colon
  GI50: 3.03 µM
  TGI: > 100 µM
OVCAR-3 ovarian
  GI50: 0.617 µM
  TGI: > 100 µM
MALME-3M melanoma
  GI50: 14.6 µM
  TGI: > 100 µM
SK-MEL-5 melanoma
  GI50: 1.96 µM
  TGI: 19 µM
786-0 renal
  GI50: 2.6 µM
  TGI: 32.2 µM
UACC-62 melanoma
  GI50: 1.48 µM
  TGI: 13.7 µM
SK-MEL-28 melanoma
  GI50: 3.05 µM
  TGI: > 100 µM
HOP-92 NSCLC
  GI50: 3.47 µM
  TGI: 61.3 µM
HT29 colon
  GI50: 5.9 µM
  TGI: > 100 µM
MDA-MB-231 breast
  GI50: 3.67 µM
  TGI: > 100 µM
NCI/ADR-RES ovarian
  GI50: 2.01 µM
  TGI: > 100 µM
OVCAR-5 ovarian
  GI50: 25.5 µM
  TGI: > 100 µM
A549 NSCLC
  GI50: 12.9 µM
  TGI: > 100 µM
NCI-H522 lung
  GI50: 2.69 µM
  TGI: 22.4 µM
SNB-75 CNS
  GI50: 9.29 µM
  TGI: > 100 µM
OVCAR-4 ovarian
  GI50: 0.967 µM
  TGI: 73.5 µM
IGROV1 ovarian
  GI50: 6.16 µM
  TGI: > 100 µM
T-47D breast
  GI50: 2.1 µM
  TGI: > 100 µM
TK-10 renal
  GI50: 17.6 µM
  TGI: > 100 µM
SN12C renal
  GI50: 4 µM
  TGI: > 100 µM
M14 melanoma
  GI50: 3.05 µM
  TGI: 23.4 µM
HOP-62 NSCLC
  GI50: 2.97 µM
  TGI: > 100 µM
A498 renal
  GI50: 15.2 µM
  TGI: > 100 µM
HS 578T breast
  GI50: 26 µM
  TGI: > 100 µM
DU-145 prostate
  GI50: 4.63 µM
  TGI: > 100 µM
NCI-H460 lung
  GI50: 1.46 µM
  TGI: > 100 µM
UACC-257 melanoma
  GI50: 4.16 µM
  TGI: > 100 µM
SF-539 CNS
  GI50: 3.97 µM
  TGI: > 100 µM
UO-31 renal
  GI50: 2.18 µM
  TGI: > 100 µM
EKVX NSCLC
  GI50: 27.3 µM
  TGI: > 100 µM
COLO 205 colon
  GI50: 4.21 µM
  TGI: > 100 µM
CCRF-CEM leukemia
  GI50: 2.15 µM
  TGI: > 100 µM
U251 CNS
  GI50: 1.86 µM
  TGI: > 100 µM
BT-549 breast
  GI50: 9.18 µM
  TGI: > 100 µM
ACHN renal
  GI50: 1.91 µM
  TGI: > 100 µM
NCI-H226 lung
  GI50: 2.61 µM
  TGI: 59 µM
SF-268 CNS
  GI50: 2.69 µM
  TGI: > 100 µM
MCF7 breast
  GI50: 2.05 µM
  TGI: > 100 µM
NCI-H23 lung
  GI50: 4.01 µM
  TGI: > 100 µM
K-562 leukemia
  GI50: 4.55 µM
  TGI: > 100 µM
MOLT-4 leukemia
  GI50: 2.91 µM
  TGI: > 100 µM
SK-MEL-2 melanoma
  GI50: 19.5 µM
  TGI: > 100 µM
HCT-15 colon
  GI50: 0.576 µM
  TGI: > 100 µM
KM12 colon
  GI50: 4.61 µM
  TGI: > 100 µM
SW-620 colon
  GI50: 3.42 µM
  TGI: > 100 µM
SR leukemia
  GI50: 2.85 µM
  TGI: > 100 µM
LOX IMVI melanoma
  GI50: 1.56 µM
  TGI: > 100 µM
HL-60(TB) leukemia
  GI50: 3.02 µM
  TGI: > 100 µM
HCT-116 colon
  GI50: 1.63 µM
  TGI: > 100 µM
CAKI-1 renal
  GI50: 1.65 µM
  TGI: > 100 µM

## CC[C@H](CC[C@@H](C)[C@H]1CC[C@H]2[C@@H]3CC=C4C[C@@H](O)CC[C@]4(C)[C@H]3CC[C@]12C)C(C)C
SNB-19 CNS
  TGI: > 100 µM
PC-3 prostate
  TGI: > 100 µM
RPMI-8226 leukemia
  TGI: > 100 µM
MDA-MB-435
  TGI: > 100 µM
SF-295 CNS
  TGI: > 100 µM
OVCAR-8 ovarian
  TGI: > 100 µM
HCC-2998 colon
  TGI: > 100 µM
OVCAR-3 ovarian
  TGI: > 100 µM
MALME-3M melanoma
  TGI: > 100 µM
SK-MEL-5 melanoma
  TGI: > 100 µM
786-0 renal
  TGI: > 100 µM
SK-MEL-28 melanoma
  TGI: > 100 µM
HOP-92 NSCLC
  TGI: > 100 µM
HT29 colon
  TGI: > 100 µM
MDA-MB-231 breast
  TGI: > 100 µM
NCI/ADR-RES ovarian
  TGI: > 100 µM
OVCAR-5 ovarian
  TGI: > 100 µM
A549 NSCLC
  TGI: > 100 µM
NCI-H522 lung
  TGI: > 100 µM
SNB-75 CNS
  TGI: > 100 µM
OVCAR-4 ovarian
  TGI: > 100 µM
IGROV1 ovarian
  TGI: > 100 µM
TK-10 renal
  TGI: > 100 µM
SN12C renal
  TGI: > 100 µM
M14 melanoma
  TGI: > 100 µM
HOP-62 NSCLC
  TGI: > 100 µM
HS 578T breast
  TGI: > 100 µM
DU-145 prostate
  TGI: > 100 µM
NCI-H460 lung
  TGI: > 100 µM
UACC-257 melanoma
  TGI: > 100 µM
SF-539 CNS
  TGI: > 100 µM
MDA-N
  TGI: > 100 µM
UO-31 renal
  TGI: > 100 µM
EKVX NSCLC
  TGI: > 100 µM
COLO 205 colon
  TGI: > 100 µM
CCRF-CEM leukemia
  TGI: > 100 µM
U251 CNS
  TGI: > 100 µM
ACHN renal
  TGI: > 100 µM
NCI-H226 lung
  TGI: > 100 µM
SF-268 CNS
  TGI: > 100 µM
MCF7 breast
  TGI: > 100 µM
NCI-H23 lung
  TGI: > 100 µM
K-562 leukemia
  TGI: > 100 µM
MOLT-4 leukemia
  TGI: > 100 µM
SK-MEL-2 melanoma
  TGI: > 100 µM
HCT-15 colon
  TGI: > 100 µM
KM12 colon
  TGI: > 100 µM
SW-620 colon
  TGI: > 100 µM
LOX IMVI melanoma
  TGI: > 100 µM
HCT-116 colon
  TGI: > 100 µM
CAKI-1 renal
  TGI: > 100 µM
